This test has as its system Tribonema sp. CCAP880/2. Kind of test: Poison Plate Assay (algal growth inhibition, MIC and synergy index). The format is cell-based. The following applies: 336 h, BG11 liquid medium, 24-well plates, 21° C., evaluation after 2 weeks of exposure, total ppm of combination at given ratio (I) to (II), read-out: MIC-values in ppm (minimum inhibitory concentration). How it is done: • General procedure: to each well of a 24-well microtiter plate, 1990 μl BG11 medium containing the test compounds in one of the concentrations of a dose series is added. The liquid freshwater mineral medium is inoculated by adding an aliquot of an actively growing, 3 week old liquid BG11 culture of algae and incubated at 21° C., 65% relative humidity, 1000 Lux 16 hr/day. The growth is evaluated after two weeks. • Test compounds: 4-bromo-2-(4-chloro-phenyl)-5-(trifluoromethyl)-1H-pyrrole-3-carbonitrile as component (I) butylBIT as component (II); • Stock solution: 8000 and 80.000 ppm in DMSO
• Test combinations: • Concentrations: 1.6-1.2-0.9-0.68-0.51-0.38-0.29-0.21-0.16-0.12-0.09-0.07 ppm • Culture medium: algae: BG 11 liquid mineral medium • Experimental set up: 24-well plates • Species of algae: Tribonema sp. CCAP880/2 • Inoculum: algae: […] of a 1/10 dilution in BG 11 of a two week old culture • Culture conditions: 21° C., 65% relative humidity, 1000 lux, 16 hour photoperiod • Evaluation: algae: after 2 weeks of exposure
Synergism between component (I) and one of the components (II) was determined by a commonly used and accepted method described by Kull F. C. et al. in Applied Microbiology, 9, 538-541 (1961) using the Synergy Index, which is calculated as follows for two compounds A and B: […]

Regarding `CCCCn1sc2ccccc2c1=O` [(I) + (II) 0 + 100, 2-butyl-1,2-benzisothiazol-3(2H)one], the MIC was found to be 2.1 µg/mL.
